PubChem BioAssay AID588567 (Sanford-Burnham Center for Chemical Genomics, 2011)
Calls of active or inactive are those of the source.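 Rule for the calls: active = mean IC50 at or below 20 µM; inactive = the rest.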

The compounds below were run on CHO-CHOP cells viability, ATPlite luminescence, 24 h (assay: cytotoxicity in CHO-CHOP reporter cells, SAR follow-up, cytotoxicity control for UPR adaptive arm activator project, cell-based, 24 h exposure, ATPlite luminescence (AID 588567)).

**Q.** For `Cc1ccc(NC(=O)c2cc(-c3ccncc3)nc3ccccc23)cc1`, which IC50 is on record?
**A.** The IC50 was > 80 µM (inactive).

**Q.** With `O=C(Nc1ccc(Cl)cc1)c1cc(-c2ccncc2)nc2ccccc12` as the compound, how does the IC50 read?
**A.** Its IC50 is 63.7 µM (inactive).

**Q.** With `O=C(Nc1ccc(C(F)(F)F)cc1)c1cc(-c2ccncc2)nc2ccccc12` as the compound, how does the IC50 read?
**A.** Its IC50 is 61.3 µM (inactive).

**Q.** How did the IC50 turn out when `O=C(Nc1ccc(Br)c(C(F)(F)F)c1)c1cc(-c2ccncc2)nc2ccccc12` was run?
**A.** Its IC50 is 50.1 µM (inactive).

**Q.** How did the IC50 turn out when `Cc1cc(Br)cc(NC(=O)c2cc(-c3ccncc3)nc3ccccc23)c1` was run?
**A.** Its IC50 is 64.8 µM (inactive).

**Q.** Which IC50 does the source give for `O=C(Nc1ccc(F)cc1)c1cc(-c2ccncc2)nc2ccccc12` here?
**A.** The IC50 was > 80 µM (inactive).

**Q.** Which IC50 does the source give for `Cc1nc(Nc2nc(-c3ccccc3)cc(=O)[nH]2)nc2ccccc12` here?
**A.** Its IC50 is 30.2 µM (inactive).
